According to PubChem BioAssay (NCI):
“And” between values parts separate entries of the source, which are not always exact repeats. Equal entries are not always repeated.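 Following 48 hours of exposure in 96-well plates, responses at five concentrations were used to interpolate endpoints linearly. Abbreviation: GI50, concentration required for 50% inhibition of growth. TGI: total growth inhibition.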

What was measured:
Test in all cases: growth of human tumour cells (NCI), 48 h
HS 578T breast = system: HS 578T breast
MDA-MB-435 = system: MDA-MB-435
TK-10 renal = system: TK-10 renal
MALME-3M melanoma = system: MALME-3M melanoma
UACC-62 melanoma = system: UACC-62 melanoma
PC-3 prostate = system: PC-3 prostate
OVCAR-3 ovarian = system: OVCAR-3 ovarian
KM12 colon = system: KM12 colon
A549 NSCLC = system: A549 NSCLC
UO-31 renal = system: UO-31 renal

SMILES | GI50 (HS 578T breast) | TGI (HS 578T breast) | GI50 (MDA-MB-435) | TGI (MDA-MB-435) | GI50 (TK-10 renal) | TGI (TK-10 renal) | GI50 (MALME-3M melanoma) | TGI (MALME-3M melanoma) | GI50 (UACC-62 melanoma) | TGI (UACC-62 melanoma) | GI50 (PC-3 prostate) | TGI (PC-3 prostate) | GI50 (OVCAR-3 ovarian) | TGI (OVCAR-3 ovarian) | GI50 (KM12 colon) | TGI (KM12 colon) | GI50 (A549 NSCLC) | TGI (A549 NSCLC) | GI50 (UO-31 renal) | TGI (UO-31 renal)
COc1ccc(CNc2nc3cc(N)cc(N)c3nc2-c2ccccc2)cc1 | 26.9 µM | > 100 µM | 10.1 µM | 21.7 µM | 28.1 µM | 57.8 µM | 10.7 µM | 22.5 µM | 14.9 µM | 29.8 µM | 10.3 µM | 27.3 µM | 2.23 µM | 7.77 µM | 13.3 µM | 26.1 µM | 21.5 µM | 59.8 µM | 11.4 µM | 28.7 µM
CNC(=O)Oc1cc(C)c(/C=C/c2cncc(C(=O)NC)c2)c(C)c1 | 12.9 µM | > 25 µM | 8.44 µM | > 25 µM | > 25 µM | > 25 µM | 13.6 µM | > 25 µM | 13.2 µM | > 25 µM | > 25 µM | > 25 µM | > 25 µM | > 25 µM | > 25 µM | > 25 µM | > 25 µM | > 25 µM | 13.3 µM | > 25 µM
CCS(=O)(=O)Nc1cccc(Nc2c3cccc(C)c3nc3c(C)cccc23)c1OC | 5.69 µM | 44.8 µM | 4.05 µM | > 86 µM | 2.24 µM | 11.5 µM | 0.901 µM | > 47.4 µM | 0.635 µM | > 100 µM | 1.67 µM | 19.2 µM | 4.59 µM | 25 µM | 2.26 µM | > 31.2 µM | 0.202 µM | 4.02 µM | 0.393 µM | 26 µM
CSc1ncnc2c1ncn2C1OC(CO)C(O)OC1O (stereo not drawn) |  | > 100 µM |  | 23.8 µM |  | 1.19 µM |  | 70.5 µM |  | 18.5 µM |  | 33.9 µM |  | 16.7 µM |  | 36.8 µM |  | > 100 µM |  | 31.2 µM
O=c1oc2ccc(-n3c(=O)c4ccccc4c4ccccc4c3=O)cc2c2ccccc12 |  | 81 µM |  | > 100 µM |  | > 100 µM |  | > 100 µM |  | > 100 µM |  | > 100 µM |  | > 100 µM |  | > 100 µM |  | > 100 µM |  | > 100 µM
O=C1c2ccccc2-c2c1c1c(O)cccc1n2-c1ccccc1 | > 100 µM | > 100 µM | > 100 µM | > 100 µM | > 100 µM | > 100 µM | > 100 µM | > 100 µM | > 100 µM | > 100 µM | > 100 µM | > 100 µM | > 100 µM | > 100 µM | > 100 µM | > 100 µM | > 100 µM | > 100 µM | > 100 µM | > 100 µM
CCOC(=O)C(C)(C)C(O)C(C)C (stereo not drawn) |  | > 100 µM |  | > 100 µM |  | > 100 µM |  | > 100 µM |  | > 100 µM |  | > 100 µM |  | > 100 µM |  | > 100 µM |  | > 100 µM |  | > 100 µM
O=C(/C(=C/c1ccc([N+](=O)[O-])cc1)SCc1ccc(F)cc1)c1ccc(Cl)cc1 | 3 µM | 9.32 µM | 2.78 µM | 9.49 µM | 20.1 µM | 54.8 µM | 10.1 µM | 24.6 µM | 5.4 µM | 36.6 µM | 3.93 µM | 16.2 µM | 3.06 µM | 10.6 µM | 2.81 µM | 8.63 µM | > 100 µM | > 100 µM | 3.6 µM | 17.8 µM
COc1cc(-c2ncn(/C=C\C(=O)OC(C)C)n2)cc(C(F)(F)F)c1 | 0.254 µM and 0.243 µM | > 65.9 µM and 6.71 µM | 0.0437 µM and 0.0485 µM | 0.702 µM and 0.457 µM | 0.271 µM and 0.123 µM | 6.91 µM and 5.42 µM | 0.149 µM and 0.147 µM | 12.9 µM and 15.3 µM | 0.112 µM and 0.114 µM | 2 µM and 3.42 µM | 0.106 µM and 0.0584 µM | 14.9 µM and 12.8 µM | 0.0406 µM and 0.0353 µM | 1.29 µM and 0.857 µM | 0.368 µM and 0.309 µM | 12.2 µM and 4.32 µM | 0.0609 µM and 0.0783 µM | 11.6 µM and 8.63 µM | 0.0569 µM and 0.0489 µM | 4.18 µM and 11.7 µM
CCc1cc2c(cc1N1CCC(N3CCOCC3)CC1)C(C)(C)c1[nH]c3cc(C#N)ccc3c1C2=O | 1.21 µM and 1.51 µM and 0.53 µM | 4.88 µM and 5.56 µM and 4.22 µM | 1.46 µM and 1.34 µM and 2.1 µM | 5.97 µM and 5.53 µM and > 10 µM | 1.66 µM and 1.71 µM and 1.42 µM | 3.61 µM and 3.95 µM and 3.05 µM | 1.41 µM and 1.4 µM and 2.3 µM | 5.62 µM and 5.27 µM and > 10 µM | 3.17 µM and 3 µM and 2.64 µM | 18.1 µM and 13.7 µM and > 10 µM | 0.921 µM and 0.653 µM and 0.738 µM | > 36.1 µM and 14.6 µM and > 10 µM | 1.68 µM and 1.65 µM | 4 µM and 3.42 µM and 3.91 µM | 0.336 µM and 0.345 µM and 0.347 µM | 5.36 µM and 3.41 µM and > 10 µM | 1.36 µM and 1.51 µM and 1.31 µM | 3.05 µM and 3.88 µM and 3.67 µM | 1.23 µM and 1.13 µM and 1 µM | 3.12 µM and 2.75 µM and 2.72 µM
OCC1OC(n2cnc3c(Cl)nc(Cl)cc32)C(O)C1O (stereo not drawn) | 19.7 µM | > 100 µM | > 100 µM | > 100 µM | > 100 µM | > 100 µM | > 100 µM | > 100 µM | > 100 µM | > 100 µM | > 100 µM | > 100 µM | > 100 µM | > 100 µM | > 100 µM | > 100 µM | > 100 µM | > 100 µM | > 100 µM | > 100 µM
COc1cccc2c1c(C1=C(c3cn(C)c4ccccc34)C(=O)NC1=O)cn2C | > 25 µM | > 25 µM | > 13.8 µM | > 25 µM | > 25 µM | > 25 µM | > 25 µM | > 25 µM | > 25 µM | > 25 µM | > 25 µM | > 25 µM | > 25 µM | > 25 µM | > 25 µM | > 25 µM | > 25 µM | > 25 µM | > 25 µM | > 25 µM
COc1ccc(-c2c(-c3cc(OC)c(OC)c(OC)c3)noc2N)cc1 | < 0.0104 µM | > 75.9 µM | < 0.01 µM |  | 0.461 µM | > 56.5 µM | 13.4 µM | 56.8 µM | < 0.01 µM | > 65.2 µM | < 0.0119 µM | > 100 µM | < 0.01 µM | 0.0208 µM | < 0.01 µM | > 36.6 µM | < 0.0124 µM | > 100 µM |  | > 100 µM
O=C(Nc1nc2ccc(F)cc2s1)c1cccnc1Nc1ccc(Cl)cc1 | 2.1 µM | 7.54 µM | 3.11 µM | > 100 µM | 5.11 µM | > 100 µM | 2.22 µM | > 27 µM | 2.47 µM | > 100 µM | 1.93 µM | > 27.4 µM | 2.11 µM | 9.57 µM | 2.61 µM | 8.54 µM | 3.35 µM | > 33.7 µM | 2.36 µM | > 21.5 µM
